Laboratory results from patent US20260232662A1, “MIR-124 INDUCER, AND PREPARATION METHOD THEREFOR AND USE THEREOF” (NANJING SYNNOCARE PHARMACEUTICAL TECHNOLOGY CO., LTD., priority 2023, published 2026).

Tests used:
miR-124 = test: Induction of miR-124 expression in PBMC cells (qPCR); format: cell-based; details: Homo sapiens, 72 h, 0.1 μM compound, human PBMCs stimulated with PMA/ionomycin, miR-191 reference gene, read-out: miR-124 expression, Fold change vs DMSO
Outline: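 Human PBMCs (3.0*10^6 cells/well) were stimulated with PMA 10 ng/mL plus ionomycin 200 ng/mL for 48 h, then given compound at 0.1 μM final for 72 h. miR-124 was measured by RT-qPCR against miR-191 as reference gene. Expression is relative to DMSO control.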

[1] = In vivo pharmacokinetic evaluation in mice; details: mouse; male ICR mice, po, 10 mg/kg, plasma
Protocol: The compound was administered orally (p.o.) at a dose of 10 mg/kg. The test formulation was prepared at a final concentration of 0.4 mg/mL in 5% DMSO+45% PEG400+50% aqueous solution or suspension. Male ICR mice (9 per group) were sampled at three discontinuous time points (n=3 mice/time point). Approximately 80 μL of blood was collected via orbital or cardiac puncture at 5 min, 15 min, 30 min, 1 h, 2 h, 4 h, 8 h, and 24 h post-dose. All whole blood samples were collected in EDTA K2-containing tubes. After centrifugation at 4° C. (4000 rpm, 10 min), plasma was collected and stored below −40° C. for subsequent analysis. Compound concentrations in plasma were determined by liquid chromatography-tandem mass spectrometry (LC-MS/MS), and pharmacokinetic parameters were derived from the plasma concentration-time curves.

DSS-induced IBD in mice = test: Preventive and therapeutic effects on DSS-induced inflammatory bowel disease (IBD) in mice; format: in vivo; details: for reduction in total DAI scores compared to the model group / Total Disease Activity Index (DAI) Scores / Colon length / colon length as % of normal control values / total DAI scores: 40 mg/kg p.o. q.d.; for Total Disease Activity Index (DAI) Scores / total DAI scores: final day; for Total Disease Activity Index (DAI) Scores / Colon length: mean ± S.E.M.; for Total Disease Activity Index (DAI) Scores: model group 14.50; for Colon length: last experimental day, normal control 6.44, model group 4.98; for colon length as % of normal control values: model group 77.32%; for total DAI scores: model group 14.5 points; for preventive and therapeutic effects on DSS-induced IBD (body weight, DAI, colon length) relative to ABX464: further experiments, figures not given
Text: This study evaluated the preventive and therapeutic effects of the compounds of the present invention on dextran sulfate sodium (DSS)-induced IBD in mice. The experiment utilized female C57BL/6 mice (purchased from Beijing Vital River Laboratory Animal Technology Co., Ltd.) to establish the DSS-induced IBD model.
Female C57BL/6 mice (6-8 weeks old) were purchased from Beijing Vital River Laboratory Animal Technology Co., Ltd. Upon arrival, the mice were housed in individually ventilated cages (IVC) under specific pathogen-free (SPF) conditions, with 2-6 mice per cage. They were provided with ad libitum access to food and water and maintained at a temperature of 20-26° C. (68-79° F.), relative humidity of 40-70%, and a 12-hour light/dark cycle (lights on from 08:00 to 20:00). After a 7-day acclimatization period, experiments were initiated.
Test compounds and ABX464 vehicle: 5% DMSO+10% Solutol HS-15+85% saline, stored at 4° C.
DSS solution: 2% (w/v) DSS in autoclaved drinking water, prepared fresh before use.
The mice were randomly allocated into eight groups according to body weight: normal control group (negative control), model group (DSS group), ABX464 treatment group, test compound groups (administered with Compounds 19, 43, 59, 84, and 89 of the present invention at 40 mg/kg, p.o., q.d.)
Following a 7-day acclimation period, the model group and compound treatment groups were administered 2% DSS aqueous solution ad libitum for 7 days starting from Day 0, followed by 3 days of normal water consumption. All groups received daily oral gavage of their respective vehicles or test compounds for 10 consecutive days beginning on the trial commencement date. During the experimental period, body weight changes in mice were monitored and recorded daily, the Disease Activity Index (DAI) was scored each day with the total score calculated on the final day, and on the last experimental day all animals were humanely euthanized followed by colon collection and length measurement.
The experimental data were expressed as mean±standard error of the mean (mean±S.E.M.). Statistical analysis was performed using GraphPad Prism or SPSS software with appropriate statistical methods. A value of P<0.05 was considered statistically significant.

[2] = day 10, 40 mg/kg p.o. q.d., female C57BL/6 mice, 2% DSS

Row | AUC(0-t) [1] [ng·h/mL] | Cmax [1] [ng/mL] | Tmax [1] [h] | half-life [1] [h] | SMILES | fold induction at 0.1 µM (miR-124) | further results
1 | 420 | 168 | 0.5 | 1.08 | FC(F)(F)Oc1ccc(Nc2ccc3cccc(Cl)c3n2)cc1 [ABX464, reference compound] | 13.5 | reduction in total DAI scores compared to the model group (DSS-induced IBD in mice): 5.72%; body weight loss percentage (DSS-induced IBD in mice; [2]): 5.37%; Total Disease Activity Index (DAI) Scores (DSS-induced IBD in mice): 13.67; Colon length (DSS-induced IBD in mice): 6.22 cm
2 | 933 | 207 | 4 | 3.45 | FC(F)(F)Oc1ccc(Nc2nc3c(Cl)cccc3n3ccnc23)cc1 [Compound 2] | 16.5 | 
3 | 1840 | 365 | 2 | 3.78 | Fc1cc(Nc2nc3c(Cl)cccc3n3ccnc23)ccc1OC(F)(F)F [Compound 18] | 17.6 | 
4 | 1640 | 358 | 4 | 3.36 | FC(F)(F)Oc1ccc(Nc2nc3c(Cl)cccc3n3ccnc23)cc1Cl [Compound 19] | 21.2 | reduction in total DAI scores compared to the model group (DSS-induced IBD in mice): 42.55%; colon length as % of normal control values (DSS-induced IBD in mice): 96.27%; body weight gain percentage (DSS-induced IBD in mice; [2]): 0.16%; Total Disease Activity Index (DAI) Scores (DSS-induced IBD in mice): 8.33; total DAI scores (DSS-induced IBD in mice): 8.33 points; Colon length (DSS-induced IBD in mice): 6.20 cm
5 |  |  |  |  | Fc1cc(Nc2nc3c(F)cc(Cl)cc3n3ccnc23)ccc1C(F)(F)F [Compound 59] | 20.5 | reduction in total DAI scores compared to the model group (DSS-induced IBD in mice): 40.90%; colon length as % of normal control values (DSS-induced IBD in mice): 100%; body weight gain percentage (DSS-induced IBD in mice; [2]): 2.12%; Total Disease Activity Index (DAI) Scores (DSS-induced IBD in mice): 8.57; total DAI scores (DSS-induced IBD in mice): 8.57 points; Colon length (DSS-induced IBD in mice): 6.48 cm
6 | 2030 | 403 | 4 | 3.29 | FC(F)(F)c1ccc(NC2=Nc3c(Cl)cccc3N3CCN=C23)cc1Cl [Compound 67] | 28.8 | 
7 | 879 | 243 | 0.5 | 2.17 | FC(F)(F)c1ccc(NC2=Nc3c(Cl)cccc3N3CCN=C23)cc1 [Compound 68] | 29.5 | 
8 | 1430 | 357 | 0.5 | 2.32 | FC1(F)Oc2ccc(NC3=Nc4c(Cl)cccc4N4CCN=C34)cc2O1 [Compound 70] | 16.4 | 
9 | 1370 | 274 | 4 | 3.41 | Fc1cc(NC2=Nc3c(Cl)cccc3N3CCN=C23)ccc1OC(F)(F)F [Compound 71] | 25.3 | 
10 |  |  |  |  | FC(F)(F)Oc1ccc(NC2=Nc3c(Br)cccc3N3CCN=C23)cc1Cl [Compound 84] | 15.5 | reduction in total DAI scores compared to the model group (DSS-induced IBD in mice): 41.59%; colon length as % of normal control values (DSS-induced IBD in mice): 96.89%; body weight gain percentage (DSS-induced IBD in mice; [2]): 0.38%; Total Disease Activity Index (DAI) Scores (DSS-induced IBD in mice): 8.47; total DAI scores (DSS-induced IBD in mice): 8.47 points; Colon length (DSS-induced IBD in mice): 6.24 cm
11 | 3590 | 450 | 1 | 2.58 | FC(F)(F)Oc1ccc(Nc2nc3cccc(Cl)c3n3ccnc23)cc1 [Compound B1, 9-chloro-N-(4-(trifluoromethoxy)-phenyl)imidazolo [1,2-a]quinoxalin-4-amine] | 43.8 | 
12 | 2850 | 271 | 2 | 3.26 | FC(F)(F)Oc1ccc(Nc2nc3ccc(Cl)cc3n3ccnc23)cc1 [Compound B4, 8-chloro-N-(4-(trifluoromethoxy)phenyl)imidazolo [1,2-a]quinoxalin-4-amine] | 33.1 | 
13 | 1330 | 346 | 0.5 | 1.96 | FC(F)(F)c1ccc(Nc2nc3cccc(Cl)c3n3ccnc23)cc1Cl [Compound B54, 9-chloro-N-(3-chloro-4-(trifluoromethyl)phenyl)imidazolo [1,2-a]quinoxalin-4-amine] | 34.1 | 
14 |  |  |  |  | FC(F)(F)Oc1ccc(Nc2nc3cccc(Br)c3n3ccnc23)cc1Cl [Compound B83, 9-bromo-N-(3-chloro-4-(trifluoromethoxy)phenyl) imidazolo[1,2-a] quinoxalin-4-amine] |  | preventive and therapeutic effects on DSS-induced IBD (body weight, DAI, colon length) relative to ABX464 (DSS-induced IBD in mice): outperformed the reference drug ABX464
15 |  |  |  |  | Fc1cc(Nc2nc3cc(Cl)cc(Cl)c3n3ccnc23)ccc1C(F)(F)F [Compound B97, 7,9-dichloro-N-(3-fluoro-4-(trifluoromethyl)phenyl) imidazolo[1,2-a] quinoxalin-4-amine] | 26.2 | preventive and therapeutic effects on DSS-induced IBD (body weight, DAI, colon length) relative to ABX464 (DSS-induced IBD in mice): outperformed the reference drug ABX464
16 |  |  |  |  | FC(F)(F)Oc1ccc(Nc2nc3cc(Cl)ccc3n3ccnc23)cc1Cl [Compound B108, 7-chloro-N-(3-chloro-4-(trifluoromethoxy)phenyl) imidazolo[1,2-a] quinoxalin-4-amine] | 22.5 | preventive and therapeutic effects on DSS-induced IBD (body weight, DAI, colon length) relative to ABX464 (DSS-induced IBD in mice): outperformed the reference drug ABX464
17 | 1880 | 269 | 2 | 2.47 | FC(F)(F)Oc1ccc(NC2=Nc3cccc(Cl)c3N3CCN=C23)cc1 [Compound B118, 9-chloro-N-(4-(trifluoromethoxy)phenyl)-1,2-dihydroimidazo[1,2-a] quinoxalin-4-amine] | 28.8 | 
18 | 1950 | 378 | 1 | 2.12 | FC(F)(F)c1ccc(NC2=Nc3cccc(Cl)c3N3CCN=C23)cc1 [Compound B121, 9-chloro-N-(4-(trifluoromethyl)phenyl)-1,2-dihydroimidazo[1,2-a] quinoxalin-4-amine] | 29.5 | 
19 | 3260 | 375 | 2 | 3.36 | FC(F)(F)c1ccc(NC2=Nc3cc(Cl)cc(Cl)c3N3CCN=C23)cc1 [Compound B139, 7,9-dichloro-N-(4-(trifluoromethyl)phenyl)-1,2-dihydroimidazo[1,2-a] quinoxalin-4-amine] | 40.6 | 
20 |  |  |  |  | Fc1cc(NC2=Nc3ccc(Cl)cc3N3CCN=C23)ccc1C(F)(F)F [Compound B146, 8-chloro-N-(3-Fluoro-4-(trifluoromethyl)phenyl)-1,2-dihydroimidazo[1,2-a] quinoxalin-4-amine] | 28.7 | 
21 |  |  |  |  | FC(F)(F)c1ccc(NC2=Nc3ccc(Cl)cc3N3CCN=C23)cc1Cl [Compound B147, 8-chloro-N-(3-chloro-4-(trifluoromethyl)phenyl)-1,2-dihydroimidazo[1,2-a] quinoxalin-4-amine] | 27.9 | 
22 |  |  |  |  | FC(F)(F)Oc1ccc(NC2=Nc3cc(Cl)ccc3N3CCN=C23)cc1 [Compound B148, 7-chloro-N-(4-(trifluoromethoxy)phenyl)-1,2-dihydroimidazo[1,2-a] quinoxalin-4-amine] | 29.4 | 
23 |  |  |  |  | Fc1cc(NC2=Nc3cc(Cl)ccc3N3CCN=C23)ccc1OC(F)(F)F [Compound B149, 7-chloro-N-(3-fluoro-4-(trifluoromethoxy)phenyl)-1,2-dihydroimidazo[1,2-a] quinoxalin-4-amine] | 34.7 | 
24 |  |  |  |  | FC(F)(F)Oc1ccc(NC2=Nc3cc(Cl)ccc3N3CCN=C23)cc1Cl [Compound B150, 7-chloro-N-(3-chloro-4-(trifluoromethoxy)phenyl)-1,2-dihydroimidazo[1,2-a] quinoxalin-4-amine] | 26.4 | 
